# According to US20060123492A1, “Methods of identifying modulators of NMUR2-mediated activity” (priority 2003, published 2006):
# Assays:
# wild type mice = test: Tail flick test, effect of morphine in wild type mice; assay type: in vivo; settings: adult male wild type mice, 30 minutes after injection
# Excerpt: (§1) Mice were gently held on a platform of an automated apparatus wrapped in a soft cloth. Their tails were exposed and extended in a straight line along a narrow groove. Once the tail was laying flat in the groove, the experimenter activated a high-intensity and heat producing narrow beam of light that was directed at a small spot in the tail. When the animal reached its pain threshold, a spinal reflex caused the tail to “flick” out of the light beam, automatically stopping a timer that started when the beam was activated. Each animal was tested 3 times, on different regions of the tail, and the median latency to “flick” was recorded as the nociceptive threshold. Experiments were performed blind with respect to the animals' genotype. The results are shown in FIGS. 1 and 2 in wild-type, heterozygous, and NMUR2 knock-out mice (FIG. 1) and for male and female mice (FIG. 2).
# (§2) Adult male mice were treated with the mu opiate receptor agonist morphine at either 0, 2.5, 5, or 10 mg/kg sub-cutaneously. At each dose, 4 wild type mice and 4 knock-outs were treated. Tail flick latencies were determined 30 minutes after injection of morphine or vehicle, with a maximum flick latency of 15 seconds allowed to prevent tissue damage. […] The difference between the tail flick latencies of the two genotypes at 2.5 mg/kg morphine could not be accounted for by the baseline difference in tail flick latencies normally observed between the wild types and the knock-outs, both because the difference in latency was larger, and because the enhancement of morphine analgesia is significant while the mild baseline analgesia observed in the NmUR2 knock-outs was not.
# NMUR2 knock-out mice = test: Tail flick test, effect of morphine in NMUR2 knock-out mice; assay type: in vivo; settings: adult male NMUR2 knock-out mice, 30 minutes after injection
# Excerpt: as §1, §2
compound,measurement,setting,value
CN1CC[C@]23c4c5ccc(O)c4O[C@H]2[C@@H](O)C=C[C@H]3[C@H]1C5 [morphine],analgesia (tail flick latency),wild type mice; 2.5 mg/kg sub-cutaneously,mild analgesia
same,analgesia (tail flick latency),wild type mice; 5 mg/kg sub-cutaneously,maximal analgesia
same,analgesia (tail flick latency),wild type mice; 10 mg/kg sub-cutaneously,maximal analgesia
same,analgesia (tail flick latency),NMUR2 knock-out mice; 2.5 mg/kg sub-cutaneously,augmented analgesia
same,tail flick latency,"NMUR2 knock-out mice; 2.5 mg/kg sub-cutaneously, maximum flick latency of 15 seconds allowed",15 s
same,analgesia (tail flick latency),NMUR2 knock-out mice; 5 mg/kg sub-cutaneously,maximal analgesia
same,analgesia (tail flick latency),NMUR2 knock-out mice; 10 mg/kg sub-cutaneously,maximal analgesia
